Source: publication PMC5979531, “Structural Requirements of Alkylglyceryl-L-Ascorbic Acid Derivatives for Melanogenesis Inhibitory Activity” (International Journal of Molecular Sciences, 2018)

Columns and labels:
B16 melanoma 4A5 cells = assay: Theophylline-stimulated melanogenesis inhibition (melanin content); assay type: cell-based, murine; details: Mus musculus, 72 h
Method in brief: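 Melanin-content inhibition: cells got compound with theophylline (1 mM) after 24 h pre-culture and were incubated 72 h. OD-based melanin inhibition was normalised to cell viability, [(A−B)/A]/(C/100)×100. IC50 values were read graphically.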

[1] = Cell viability of B16 melanoma 4A5 cells; assay type: cell-based, murine; details: mouse, B16 4A5 cells
Method in brief: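 After 24 h seeding in DMEM, B16 melanoma 4A5 cells received test compound plus theophylline (1 mM) for 72 h before viability readout. IC50 values read graphically.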

[2] = Stability in aqueous solution at elevated temperature (HPLC residual ratio); assay type: physicochemical; details: 20 mg/mL at 125 °C in the dark, after 3 h
Method: To determine stability, the samples were stored at 125 °C, and the residual ratio was calculated by measuring the remaining compound by HPLC. HPLC mobile phase conditions were as follows: AsA was described previously, 6 and 20 were 40% methanol containing 0.1% formic acid at flow rate of 0.2 mL/min [52, 53].

tyrosinase from mushroom = assay: Mushroom tyrosinase activity; assay type: biochemical
Method: Tyrosinase activities using L-tyrosine or L-DOPA as a substrate were determined according to the protocols described previously. Briefly, samples, L-tyrosine (2.5 mM, or L-DOPA, 3.0 mM), mushroom tyrosinase (46 units/mL), and phosphate buffer were mixed in a 96-well plate and incubated at 25 °C. (L-tyrosine; 30 min, L-DOPA; 5 min). The absorbance was then measured at 492 nm.

mammalian tyrosinase = biological target: T1, mammalian tyrosinase (Mus musculus, UniProt P11344); assay: Mammalian tyrosinase activity (B16 cell lysate, L-DOPA); assay type: biochemical, murine; details: L-DOPA as substrate
T1 construct: the cells were solubilized using 0.1% Triton X-100; endogenous in cells; host or cells: B16 melanoma cells (lysate, after 72 h of 1 mM theophylline)
T1 sequence (P11344 19-533): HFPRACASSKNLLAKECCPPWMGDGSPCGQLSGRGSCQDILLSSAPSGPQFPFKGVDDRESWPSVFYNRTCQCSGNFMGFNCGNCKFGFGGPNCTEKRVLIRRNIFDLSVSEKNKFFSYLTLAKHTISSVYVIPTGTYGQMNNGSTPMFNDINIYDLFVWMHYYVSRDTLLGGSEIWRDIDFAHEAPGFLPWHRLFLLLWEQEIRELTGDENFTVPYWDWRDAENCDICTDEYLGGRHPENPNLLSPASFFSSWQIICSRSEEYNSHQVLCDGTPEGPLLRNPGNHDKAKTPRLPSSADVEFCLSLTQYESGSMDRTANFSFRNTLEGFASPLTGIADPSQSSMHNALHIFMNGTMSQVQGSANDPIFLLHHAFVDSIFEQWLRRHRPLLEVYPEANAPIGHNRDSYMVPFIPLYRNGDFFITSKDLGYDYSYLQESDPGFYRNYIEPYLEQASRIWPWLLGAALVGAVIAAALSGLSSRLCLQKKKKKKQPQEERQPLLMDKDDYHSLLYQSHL
Method: Tyrosinase activity using L-DOPA as a substrate was determined according to protocols described previously. Briefly, B16 cells were seeded into 6-well plates in DMEM. After preculture with theophylline (1 mM) for 72 h, the cells were solubilized using 0.1% Triton X-100. Fifty microliters of each lysate and sample was then mixed with 100 µL 2 mM L-DOPA. After the mixtures were incubated for 30 min at 37 °C, the absorbance of each solution at 492 nm was measured.

tyrosinase mRNA = assay: Expression of tyrosinase mRNA (qRT-PCR); assay type: cell-based, murine; details: 30 µM, B16 4A5 cells, theophylline 1 mM, 72 h
Method: (§1) The expression of tyrosinase, TRP-1, and TRP-2 mRNA was assessed according to previously reported methods. Briefly, murine B16 melanoma 4A5 cells were seeded into 96-well plates in DMEM. After 24 h of culture, a test compound and theophylline (1 mM) were added and incubated for 72 h. Then, the amount of each mRNA was quantified by quantitative reverse transcription PCR.

TRP-1 mRNA = assay: Expression of TRP-1 mRNA (qRT-PCR); assay type: cell-based, murine; details: 30 µM, B16 4A5 cells, theophylline 1 mM, 72 h
Method: as §1

TRP-2 mRNA = assay: Expression of TRP-2 mRNA (qRT-PCR); assay type: cell-based, murine; details: B16 4A5 cells, theophylline 1 mM, 72 h
Method: as §1

tyrosinase protein = assay: Expression of tyrosinase protein (western blotting); assay type: cell-based, murine; details: B16 4A5 cells, theophylline 1 mM, 72 h
Method: The expression of tyrosinase protein was assessed according to a previously reported method. Briefly, murine B16 melanoma 4A5 cells were seeded into 6-well plates in DMEM. After 24 h of culture, a test compound and theophylline (1 mM) were added and incubated for 72 h. The expression of tyrosinase protein then was measured by western blotting.

[3] = system: tyrosinase activity in B16 melanoma 4A5 cells; assay: Tyrosinase activity in cultured B16 cells; assay type: cell-based, murine; details: B16 4A5 cells, L-DOPA as substrate
Method: Tyrosinase activity in cultured cells was determined according to protocols described previously with modifications. Briefly, B16 melanoma 4A5 cells (4 × 10^3 cells/100 µL/well) were seeded into 96-well plates in DMEM. After pre-culture with sample and theophylline (1 mM) for 72 h, the cells were solubilized using 0.1% Triton X-100, and then each lysate was mixed with 50 μL 2 mM L-DOPA. After the mixtures were incubated for 1 h at 37 °C, the absorbance of the solution at 492 nm was measured using the microplate reader.

CCCCCCOC1=C(OCC(O)CO)[C@@H]([C@@H](O)CO)OC1=O (stereo partly drawn) [compound 6, 3-O-(2,3-dihydroxypropyl)-2-O-hexyl-AsA]
inhibition at 3 µM (B16 melanoma 4A5 cells; 3 µM, theophylline-stimulated B16 4A5 cells): -1.8 ± 4.9% | inhibition at 10 µM (B16 melanoma 4A5 cells; 10 µM, theophylline-stimulated B16 4A5 cells): 5.6 ± 2% | inhibition at 30 µM (B16 melanoma 4A5 cells; 30 µM, theophylline-stimulated B16 4A5 cells): 26.2 ± 6% | inhibition at 100 µM (B16 melanoma 4A5 cells; 100 µM, theophylline-stimulated B16 4A5 cells): 53.1 ± 3.1% | IC50 (B16 melanoma 4A5 cells; theophylline (1 mM)-stimulated B16 melanoma 4A5 cells): 81.4 µM | viability at 72 h, 3 µM ([1]; 3 µM): 102% | viability at 72 h, 10 µM ([1]; 10 µM): 96.1% | viability at 72 h, 30 µM ([1]; 30 µM): 88.4% | viability at 72 h, 100 µM ([1]; 100 µM): 77.1% | Residual ratio in aqueous solution [2]: 85% | Inhibition (%) of mushroom tyrosinase (tyrosinase from mushroom; Substrate: L-DOPA, 30 µM): −1.5 ± 1.5% | Inhibition (%) of mushroom tyrosinase (tyrosinase from mushroom; Substrate: L-DOPA, 100 µM): −1.0 ± 0.7% | Inhibition (%) of mushroom tyrosinase (tyrosinase from mushroom; Substrate: L-Tyrosine, 30 µM): −1.5 ± 6.7% | Inhibition (%) of mushroom tyrosinase (tyrosinase from mushroom; Substrate: L-Tyrosine, 100 µM): 0.9 ± 1.4% | activity on mammalian tyrosinase (in words) (mammalian tyrosinase): did not show activity | Tyrosinase mRNA/β-actin mRNA (tyrosinase mRNA): 0.60 ± 0.07 | TRP-1 mRNA/β-actin mRNA (TRP-1 mRNA): 0.48 ± 0.15 | TRP-2 mRNA/β-actin mRNA (TRP-2 mRNA; 30 µM): 0.53 ± 0.18 | TRP-2 mRNA/β-actin mRNA (TRP-2 mRNA; 100 µM): 0.70 ± 0.06 | expression of tyrosinase protein (in words) (tyrosinase protein): suppressed tyrosinase protein expression in a concentration-dependent manner | tyrosinase activity in cultured cells (in words) [3]: decreased tyrosinase activity in cultured cells
